The values below come from patent US20220274938A1, “5-[(1S)-1-(4-BROMOPHENOXY)ETHYL]-2H-TETRAZOLE DERIVATIVES AND RELATED COMPOUNDS AS CLC-1 ION CHANNEL INHIBITORS FOR TREATING NEUROMUSCULAR DISORDERS” (NMD PHARMA A/S, priority 2019, published 2022).

The target in the test is T1, CIC-1 ion channel (Rattus norvegicus, UniProt P35524).
T1 construct: CIC-1 channels in native tissue of rat skeletal muscle fibres; from tissue; host or cells: whole soleus muscle of 12-14 week old Wistar rats
T1 sequence (P35524 1-994): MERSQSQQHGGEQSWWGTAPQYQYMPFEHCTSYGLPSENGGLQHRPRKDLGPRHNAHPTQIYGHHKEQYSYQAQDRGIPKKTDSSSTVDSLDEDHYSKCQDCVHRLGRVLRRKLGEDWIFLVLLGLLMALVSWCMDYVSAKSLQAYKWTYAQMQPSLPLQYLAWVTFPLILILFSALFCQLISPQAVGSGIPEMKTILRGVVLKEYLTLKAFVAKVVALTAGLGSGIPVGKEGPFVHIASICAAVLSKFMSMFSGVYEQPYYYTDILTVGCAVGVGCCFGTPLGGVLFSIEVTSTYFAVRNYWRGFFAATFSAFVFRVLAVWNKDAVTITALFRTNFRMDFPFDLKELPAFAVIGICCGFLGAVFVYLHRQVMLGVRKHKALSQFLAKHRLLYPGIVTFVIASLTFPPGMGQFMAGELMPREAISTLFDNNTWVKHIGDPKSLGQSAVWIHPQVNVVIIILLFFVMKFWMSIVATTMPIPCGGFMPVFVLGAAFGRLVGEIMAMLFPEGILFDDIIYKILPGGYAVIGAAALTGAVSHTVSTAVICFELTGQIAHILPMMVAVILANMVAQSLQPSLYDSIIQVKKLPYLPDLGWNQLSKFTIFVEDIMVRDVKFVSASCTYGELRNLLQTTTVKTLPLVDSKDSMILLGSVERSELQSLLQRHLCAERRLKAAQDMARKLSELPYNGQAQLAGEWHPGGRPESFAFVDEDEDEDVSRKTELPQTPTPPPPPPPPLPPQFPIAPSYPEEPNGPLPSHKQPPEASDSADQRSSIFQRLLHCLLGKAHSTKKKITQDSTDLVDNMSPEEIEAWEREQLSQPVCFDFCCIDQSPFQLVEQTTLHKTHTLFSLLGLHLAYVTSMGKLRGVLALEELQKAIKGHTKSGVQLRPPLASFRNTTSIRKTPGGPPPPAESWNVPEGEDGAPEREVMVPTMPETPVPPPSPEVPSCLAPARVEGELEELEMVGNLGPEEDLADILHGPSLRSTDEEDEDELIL
Nature of the test: Electrophysiological measurement (Gm, three micro-electrodes) of compound inhibition of CIC-1 in rat soleus muscle fibres. The note with it: approx. 30° C., four increasing compound concentrations, read-out: EC50 (inhibition of CIC-1 ion channel, reduction of Gm). The class given is cell-based. The text has this: FIG. 1. […] Please note that the drawing illustrates only the impaled fibre although it is part of an intact muscle that contains many such fibres. All electrodes recorded the membrane potential of the fibre and the two peripheral electrodes were used to inject current (−30 nA, 50 ms). The electrodes were inserted with known inter-electrode distances (X1, X2 and X3). After insertion, current was passed first via the V1 electrode and then via the V3 electrode. The resulting deflections in the membrane voltage were measured by the other electrodes. The steady state deflections in membrane potential were measured and divided by the magnitude of the injected current (−30 nA) to obtain transfer resistances. These were next plotted against inter-electrode distances, and fitted to an exponential function (Panel B), from which Gm could be calculated using linear cable theory. The approach described in panel A and B, was repeated for several muscle fibres in the muscle during exposure at increasing concentrations of compound E-8, with approx. 10 fibres at each concentration. Average Gm at each concentration was plotted as a function of compound concentration in panel C, and fitted to a 4-parameter sigmoidal function from which the EC50 value for the compound was obtained (dashed line)
Apparent CIC-1 affinity was reported by the concentration of compound at which 50% of the compound's full inhibition of CIC-1 was observed (EC50).
CIC-1 Cl^− ion channels generate around 80% of the total membrane conductance (Gm) in resting skeletal muscle fibres of most animals including rat and human (Bretag, A H. Muscle chloride channels. Physiological Reviews, 1987, 67, 618-724). […] CIC-1 inhibition would in such recordings be reflected by a reduction of Gm.
Experimentally, Gm was measured in individual fibres of whole rat soleus muscles using a three micro-electrodes technique described in this example and in full detail elsewhere (Riisager et al., Determination of cable parameters in skeletal muscle fibres during repetitive firing of action potentials. Journal of Physiology, 2014, 592, 4417-4429). Briefly, intact rat soleus muscles were dissected out from 12-14 week old Wistar rats and placed in an experimental chamber that was perfused with a standard Krebs Ringer solution containing 122 mM NaCl, 25 mM NaHCO3, 2.8 mM KCl, 1.2 mM KH2PO4, 1.2 mM MgSO4, 1.3 mM CaCl2, 5.0 mM D-glucose. During experiments, the solution was kept at approx. 30° C. and continuously equilibrated with a mixture of 95% O2 and 5% CO2, pH˜7.4. The experimental chamber was placed in Nikon upright microscope that was used to visualize individual muscle fibres and the three electrodes (glass pipettes filled with 2 M potassium citrate). For Gm measurements, the electrodes were inserted into the same fibre with known inter-electrode distances of 0.35-0.5 mm (V1-V2, X1) and 1.1-1.5 mm (V1-V3, X3) (FIG. 1A). The membrane potential of the impaled muscle fibre was recorded by all electrodes. Two of the electrodes were furthermore used to inject 50 ms current pulses of −30 nA. […] The steady state voltage deflection at each distance was divided by the magnitude of current injected (−30 nA) and the resulting transfer resistances were plotted against inter-electrode distance and the data was fitted to a mono-exponential function from which Gm could be calculated using linear cable theory (FIG. 1B).
To establish a dose response relationship, Gm was first determined in 10 muscle fibres in the absence of compound and then at four increasing compound concentrations with Gm determinations in 5-10 fibres at each concentration. The average Gm values at each concentration were plotted against compound concentration and the data was fitted to sigmoidal function to obtain an EC50 value (FIG. 1C).

Molecules are shown by their SMILES.

By EC50 is commonly meant the concentration that produces a half-maximal response. On to `C[C@H](Oc1ccc(Cl)cc1)C(=O)NOC1CCC1` [Compound C-80, (2S)-2-(4-chlorophenoxy)-N-cyclobutoxypropanamide], for which the EC50 turned out to be 2.6 µM. The result for `C[C@H](Oc1ccc(Br)cc1F)c1nn[nH]n1` [Compound E-8, 5-[(1S)-1-(4-bromo-2-fluorophenoxy)ethyl]-2H-1,2,3,4-tetrazole] reads 6.6 µM.
